In the supplement of paper PMC10307832:

Key:
Test in all cases: relative viability (nuclei count vs DMSO), 5 days (fraction); higher = more cells survive
Sulindac + Phenformin = compound: CC1=C(CC(=O)O)c2cc(F)ccc2/C1=C\c1ccc([S+](C)[O-])cc1 [Sulindac] + N=C(N)NC(=N)NCCc1ccccc1 [Phenformin] (partner 250 µM)
Method in brief: (§1)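 Each reported value is a median over duplicate plates. It expresses relative viability: treated-well nuclei count divided by vehicle-well nuclei count. Lung cancer cell lines in 1536-well plates were dosed by pin tool a day after seeding, alone with one drug or with a fixed anchor-drug dose plus five library-drug doses (not always all listed) in √10 steps, and nuclei were counted after 5 days.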

Sulindac + Decitabine = compound: CC1=C(CC(=O)O)c2cc(F)ccc2/C1=C\c1ccc([S+](C)[O-])cc1 [Sulindac] + Nc1ncn([C@H]2C[C@H](O)[C@@H](CO)O2)c(=O)n1 [Decitabine] (partner 2 µM)
Method in brief: as §1

[1] = compound: CN[C@@H]1C[C@H]2O[C@@](C)([C@@H]1OC)n1c3ccccc3c3c4c(c5c6ccccc6n2c5c31)C(=O)NC4 [Staurosporine] + Cc1nc(NC(=O)N2CCC[C@H]2C(N)=O)sc1-c1ccnc(C(C)(C)C(F)(F)F)c1 [Alpelisib] (partner 2 µM)
Method in brief: as §1

[2] = compound: O=c1[nH]cc(F)c(=O)[nH]1 [5-Fluorouracil] + CS(=O)(=O)CCNCc1ccc(-c2ccc3ncnc(Nc4ccc(OCc5cccc(F)c5)c(Cl)c4)c3c2)o1 [Lapatinib] (partner 2 µM)
Method in brief: as §1

Cell Line	relative viability (Sulindac + Phenformin; first compound 0.08 µM)	relative viability (Sulindac + Phenformin; first compound 0.253 µM)	relative viability (Sulindac + Phenformin; first compound 0.8 µM)	relative viability (Sulindac + Phenformin; first compound 2.53 µM)	relative viability (Sulindac + Phenformin; first compound 8 µM)	relative viability (Sulindac + Decitabine; first compound 0.08 µM)	relative viability (Sulindac + Decitabine; first compound 0.253 µM)	relative viability (Sulindac + Decitabine; first compound 0.8 µM)	relative viability (Sulindac + Decitabine; first compound 2.53 µM)	relative viability (Sulindac + Decitabine; first compound 8 µM)	relative viability ([1]; first compound 0.005 µM)	relative viability ([1]; first compound 0.05 µM)	relative viability ([1]; first compound 0.1581 µM)	relative viability ([1]; first compound 0.5 µM)	relative viability ([2]; first compound 0.02 µM)	relative viability ([2]; first compound 0.2 µM)	relative viability ([2]; first compound 0.6325 µM)	relative viability ([2]; first compound 2 µM)	relative viability ([1]; first compound 0.01581 µM)
NCI-H1944	0.209	0.226	0.18	0.203	0.271	0.489	0.44	0.412	0.426	0.449	0.953	0.483	0.384	0.341	0.843	0.908	0.474	0.268	
NCI-H2085	0.767	0.912	0.593	0.739	0.751	0.497	0.556	0.545	0.525	0.5	0.609	0.495	0.343	0.28	0.654	0.957	0.923	0.704	0.53
EBC-1											0.367	0.151	0.157	0.145	0.189	0.187	0.178	0.249	0.307
NCI-H1792	0.243	0.441		0.353	0.255	0.476	0.632		0.581	0.417	0.789	0.187	0.14	0.117	0.893	0.853	0.235	0.161	0.499
NCI-H1650	0.372	0.481		0.41	0.53	0.4	0.495	0.421	0.378	0.473					0.707	0.758	0.563	0.445	
NCI-H1563	0.647	0.626	0.608	0.694	0.677						0.813	0.63	0.53	0.489	0.769	0.942	0.975	0.74	0.57
SW 900		0.723		0.563	0.606	0.449	0.432			0.489									
NCI-H1299											1.13	0.237	0.205	0.196	1.05	0.978	0.959	0.817	0.874
NCI-H1623	0.561	0.595	0.663	0.632	0.6														
NCI-H2228	0.388	0.352	0.254	0.271	0.341						0.658	0.155	0.148	0.0961	1.13	1.06	0.687	0.505	0.204
NCI-H2342	0.647	0.594	0.475	0.546	0.625	0.681	0.706	0.591	0.648	0.786									
Calu-6											0.732	0.279	0.104	0.0766	1.04	1.01	0.908	0.537	0.612
ChaGo-K-1	0.592	0.51	0.481	0.5	0.596	0.601	0.484	0.466	0.515	0.523									
LCLC-103H	0.361	0.318	0.286	0.315	0.323	0.748	0.787	0.738	0.661	0.729	1.07	0.365	0.221	0.178					0.513
